Literature values, collected in patent US20230133919A1, “COMPOSITIONS AND RELATED METHODS FOR REDUCING VAPOR EFFECT OF VOLATILE HERBICIDES” (BOARD OF TRUSTEES OF MICHIGAN STATE UNIVERSITY, priority 2020, published 2023).

Conditions: approximate

Row | Compound | vapor pressure
1 | CCCCC(CC)COC(=O)COc1ccc(Cl)cc1Cl (stereo not shown) [2,4-D (2-ethylhexyl ester)] | ~4.8×10^−4 Pa
2 | CCCCOCCOC(=O)COc1ccc(Cl)cc1Cl [2,4-D (butoxyethyl ester)] | ~3.2×10^−4 Pa
3 | CNC.O=C(O)COc1ccc(Cl)cc1Cl [2,4-D (dimethylamine salt)] | ~1.3×10^−5 Pa
4 | CC(C)OC(=O)COc1ccc(Cl)cc1Cl [2,4-D (isopropyl ester)] | ~1.9×10^1 Pa
